Results on 3 molecules are retold here after ChEMBL document CHEMBL3400095, “β-sheet interfering molecules acting against β-amyloid aggregation and fibrillogenesis” (Bioorg Med Chem, 2015).

The target in experiment [1] is Amyloid-beta precursor protein (Homo sapiens, UniProt P05067). The experiment can be described thus: Inhibition of amyloid beta (1 to 40) (unknown origin) aggregation.
Experiment [2] is filed under the species Mus musculus. The experiment can be described thus: Reduction in amyloid beta levels in Tg2576 mouse. Type of experiment: functional.
The species entered for experiment [3] is Mus musculus. The experiment can be described thus: Reduction in amyloid beta plaques in Tg2576 mouse. The format is functional.

Amyloid-beta precursor protein, sequence (P05067 whole entry): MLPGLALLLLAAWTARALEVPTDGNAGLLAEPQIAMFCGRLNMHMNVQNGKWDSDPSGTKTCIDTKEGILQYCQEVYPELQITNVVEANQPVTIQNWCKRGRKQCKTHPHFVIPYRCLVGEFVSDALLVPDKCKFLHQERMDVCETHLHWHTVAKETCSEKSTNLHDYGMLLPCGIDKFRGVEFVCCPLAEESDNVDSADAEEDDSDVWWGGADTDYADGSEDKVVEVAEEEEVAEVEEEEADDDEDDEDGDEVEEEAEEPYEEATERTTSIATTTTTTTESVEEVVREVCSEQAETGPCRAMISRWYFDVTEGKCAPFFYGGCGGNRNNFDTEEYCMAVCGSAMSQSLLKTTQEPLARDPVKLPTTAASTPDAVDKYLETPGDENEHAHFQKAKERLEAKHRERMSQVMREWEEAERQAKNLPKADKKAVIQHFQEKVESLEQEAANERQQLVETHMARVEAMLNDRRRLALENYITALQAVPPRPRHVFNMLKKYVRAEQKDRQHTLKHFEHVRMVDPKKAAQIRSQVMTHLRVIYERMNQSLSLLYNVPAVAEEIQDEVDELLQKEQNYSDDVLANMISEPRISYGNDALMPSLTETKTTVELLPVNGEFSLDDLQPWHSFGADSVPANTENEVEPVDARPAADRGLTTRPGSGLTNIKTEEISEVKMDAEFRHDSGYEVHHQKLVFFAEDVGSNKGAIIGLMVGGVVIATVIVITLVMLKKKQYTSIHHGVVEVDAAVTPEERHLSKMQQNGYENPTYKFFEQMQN

For `CNc1ccc(C(=O)NC(CCCCCNC(=O)OCc2ccccc2)C(=O)O)cc1` (centres undefined), the IC50 (in general, the point on the concentration scale where inhibition reaches its midpoint) in experiment [1] amounted to 2.75 µM. As for `O=C(Cc1ccccc1)NC(CSSCC(NC(=O)Cc1ccccc1)C(=O)O)C(=O)O` (centres undefined), in experiment [1], it took 1.95 µM to reach half-maximal inhibition (IC50). For the molecule `O=C(O[C@@H]1Cc2c(O)cc(O)cc2O[C@@H]1c1cc(O)c(O)c(O)c1)c1cc(O)c(O)c(O)c1` [EPIGALOCATECHIN GALLATE], the “inhibition (INH)” value in the experiment filed under Mus musculus [2] and in the experiment listed under Mus musculus [3] was 50% throughout.
